Experimental data reported in article PMC4613828 (PLoS Pathogens, 2015).

What was measured:
CVA9 (strain Bozek) = assay: Virus-cell-based antiviral assay (CPE reduction, MTS); parameters: species or system Coxsackie A9; conditions: Enterovirus B, BGM cells
CVA16 (strain G-10) = assay: as above; parameters: species or system coxsackievirus A16; conditions: Enterovirus A, HeLa H1 cells
CVA21 (strain Coe) = assay: as above; conditions: BGM cells
CVB3 (strain Nancy) = assay: as above; parameters: species or system Coxsackievirus B3; conditions: Enterovirus B, BGM cells
CVB4 (strain E2 Edwards) = assay: as above; conditions: Enterovirus B, BGM cells
[1] = test system: PV1 (poliovirus type 1 strain Sabin); assay: microbe, parasite or virus in culture; type: cell-based; conditions: Enterovirus C, BGM
[2] = test system: PV2 (poliovirus type 2 strain Sabin); assay: microbe, parasite or virus in culture; type: cell-based; conditions: Enterovirus C, BGM
[3] = test system: PV3 (poliovirus type 3 strain Sabin); assay: microbe, parasite or virus in culture; type: cell-based; conditions: Enterovirus C, BGM
[4] = test system: ECHO11 (echovirus 11 strain Gregory); assay: Virus-cell-based antiviral assay (CPE reduction, MTS); conditions: Enterovirus B, BGM cells
[5] = test system: HRV02 (human rhinovirus type 2); assay: as above; conditions: Human rhinovirus sp., HeLa H1 cells (footnote c), 35°C
[6] = test system: HRV14 (human rhinovirus type 14); assay: as above; conditions: Human rhinovirus sp., HeLa H1 cells (footnote c), 35°C
[7] = test system: EV71-B2 (strain 11316 genogroup B2); assay: as above; parameters: species or system enterovirus 71; conditions: Enterovirus A; EV71 strain 11316 genogroup B2; RD cells
[8] = test system: EV71-B5 (strain TW/96016/08 genogroup B5); assay: as above; parameters: species or system enterovirus 71; conditions: Enterovirus A; EV71 strain TW/96016/08 genogroup B5; RD cells
in vitro = conditions: African green monkey

Row | Compound | EC50 (CVA9 (strain Bozek)) | EC50 (CVA16 (strain G-10)) | EC50 (CVA21 (strain Coe)) | EC50 (CVB3 (strain Nancy)) | EC50 (CVB4 (strain E2 Edwards)) | EC50 [1] | EC50 [2] | EC50 [3] | EC50 [4] | EC50 [5] | EC50 [6] | EC50 [7] | EC50 [8] | CC50 (in vitro)
1 | CCON=Cc1ccc(OCCC(C)CCN2CCN(c3ccncc3)C2=O)cc1 (stereo not shown) [GPP3] | 1.5 ± 0.1 µM | 14 ± 4 nM | 16 ± 15 nM | 3700 ± 200 nM | > 7 µM | 200 nM | 6 nM | 66 nM | 500 ± 100 nM | 1000 ± 700 nM | 1500 ± 300 nM | 0.96 ± 0.6 nM | 0.93 ± 0.3 nM | 7 ± 2 µM
2 | CCON=Cc1ccc(OCCC(C)CCN2CCN(c3ccnc(C(N)=O)c3)C2=O)cc1 (stereo not shown) [ALD] | 5.4 ± 1 µM | 43 ± 8 nM | 56 ± 40 nM | 2200 ± 200 nM | > 7 µM | 3500 ± 1400 nM | 75 ± 19 nM | 184 ± 8 nM | 2100 ± 500 nM | > 21000 nM | 843 ± 13 nM | 31 ± 12 nM | 82 ± 23 nM | 7 ± 1 µM
